Literature values as cited in publication PMC4138103 (PLoS ONE, 2014).
Read-outs that look alike come from different tables or passages of the source.

Tested on: Liver enzymes
Design: method as in Roos et al., 2011
Details: 2011, cited from earlier work; for CED, CYP3A1 mRNA / CED-L, CYP3A1 mRNA: model E4; for CED, CYP3A1 mRNA / CED-L, CYP3A1 mRNA / CED, CYP2B1 mRNA / CED-L, CYP2B1 mRNA: adipose tissue concentration based, enzyme induction data ref Roos et al.; for CED, CYP2B1 mRNA / CED-L, CYP2B1 mRNA: model E5; for CYP2B1 mRNA, CED / CYP2B1 mRNA, CED-L / CYP3A1 mRNA, CED / CYP3A1 mRNA, CED-L: total dose based, ref Roos et al.

Clc1cc(Cl)c(-c2cc(Cl)c(Cl)c(Cl)c2Cl)cc1Cl [PCB 180, 2,2′,3′,4,4′,5,5′-heptachlorobiphenyl]
CED, CYP3A1 mRNA (F, CES 5%): 6.75 µg/g lipid | CED-L, CYP3A1 mRNA (F, CES 5%): 3.19 µg/g lipid | CED, CYP2B1 mRNA (F, CES 5%): 12.4 µg/g lipid | CED-L, CYP2B1 mRNA (F, CES 5%): 5.74 µg/g lipid | CED, CYP3A1 mRNA (F, CES 10%): 13.5 µg/g lipid | CED-L, CYP3A1 mRNA (F, CES 10%): 6.39 µg/g lipid | CED, CYP2B1 mRNA (F, CES 10%): 15.5 µg/g lipid | CED-L, CYP2B1 mRNA (F, CES 10%): 7.76 µg/g lipid | CED, CYP3A1 mRNA (M, CES 5%): 5.88 µg/g lipid | CED-L, CYP3A1 mRNA (M, CES 5%): 3.63 µg/g lipid | CED, CYP2B1 mRNA (M, CES 5%): 1.52 µg/g lipid | CED-L, CYP2B1 mRNA (M, CES 5%): 0.584 µg/g lipid | CED, CYP3A1 mRNA (M, CES 10%): 11.8 µg/g lipid | CED-L, CYP3A1 mRNA (M, CES 10%): 7.26 µg/g lipid | CED, CYP2B1 mRNA (M, CES 10%): 2.15 µg/g lipid | CED-L, CYP2B1 mRNA (M, CES 10%): 0.895 µg/g lipid | CYP2B1 mRNA, CED (females, CES 5%): 1.70 mg/kg bw | CYP2B1 mRNA, CED-L (females, CES 5%): 0.90 mg/kg bw | CYP3A1 mRNA, CED (females, CES 5%): 1.50 mg/kg bw | CYP3A1 mRNA, CED-L (females, CES 5%): 0.70 mg/kg bw | CYP2B1 mRNA, CED (females, CES 10%): 2.20 mg/kg bw | CYP2B1 mRNA, CED-L (females, CES 10%): 1.20 mg/kg bw | CYP3A1 mRNA, CED (females, CES 10%): 2.90 mg/kg bw | CYP3A1 mRNA, CED-L (females, CES 10%): 1.40 mg/kg bw | CYP2B1 mRNA, CED (males, CES 5%): 0.70 mg/kg bw | CYP2B1 mRNA, CED-L (males, CES 5%): 0.40 mg/kg bw | CYP3A1 mRNA, CED (males, CES 5%): 1.40 mg/kg bw | CYP3A1 mRNA, CED-L (males, CES 5%): 0.90 mg/kg bw | CYP2B1 mRNA, CED (males, CES 10%): 1.00 mg/kg bw | CYP2B1 mRNA, CED-L (males, CES 10%): 0.50 mg/kg bw | CYP3A1 mRNA, CED (males, CES 10%): 2.90 mg/kg bw | CYP3A1 mRNA, CED-L (males, CES 10%): 1.80 mg/kg bw
